Values joined by “and” are separate entries in the source; they are usually repeats but may differ in a detail not shown here. Equal values may be shown once.
Key:
Assay type in all cases: cell-based
SW-1573 = test: 5-day Cell Titer Glo combination matrix, Bliss score; conditions: 5 days
Description: (§2) Cells were seeded in RPMI medium with 10% HI FBS at a density of 500 cells/well in Greiner, white, clear bottom, 384-well tissue culture treated plates containing 10×10 combination matrices of compound. Plates were incubated at 37° C., 5% CO2 for 5 days. On day 5, Cell Titer Glo reagent was added to the plates and ATP luminescence was detected using a Pherastar FSX reader. The synergy score for the combination effect was calculated using a Bliss score model where the Bliss score=Yab-(Ya+Yb−(YaYb))×100, where Ya and Yb are the monotherapies. Bliss scores >20 are strongly synergistic and a higher Bliss scores indicates a higher level of synergism.
(§3) Cells were seeded in RPMI medium with 10% HI FBS at a density of 500 cells/well in Greiner, white, clear bottom, 384-well tissue culture treated plates containing 10×10 combination matrices of compound. Plates were incubated at 37° C., 5% CO2 for 5 days. On day 5, Cell Titer Glo reagent was added to the plates and ATP luminescence was detected using a Pherastar FSX reader. Synergy score for the combination effect is calculated using a Bliss score model where the Bliss score=Yab−(Ya+Yb−(YaYb))×100, where Ya and Yb are the monotherapies. Bliss scores >20 are strongly synergistic and a higher Bliss scores indicates a higher level of synergism.
(§4) Cells were seeded in RPMI medium with 10% HI FBS at a density of 500 cells/well in Greiner, white, clear bottom, 384-well tissue culture treated plates containing 10×10 combination matrices of compound. Plates were incubated at 37° C., 5% CO2 for 5 days. On day 5, Cell Titer Glo reagent was added to the plates and ATP luminescence was detected using a Pherastar FSX reader. The synergy score for the combination effect was calculated using a Bliss score model where the Bliss score=Yab−(Ya+Yb−(YaYb))×100, where Ya and Yb are the monotherapies. Bliss scores >20 are strongly synergistic and a higher Bliss scores indicates a higher level of synergism.

HCC-44 = test: as above; conditions: HCC44 (Lung, Mesenchymal); FGFR inhibitor in combination with MRTX849; 5 days
Description: as §2, §4

pFRS2a = test: Western blot of pFRS2a in LU99 cell lysate (90 hours treatment); conditions: LU99 cells
Excerpt: FGFR1 and downstream activation marker pFRS2a protein levels were examined in indicated cell lines, as well as markers for epithelial-like cells (E-cadherin) and mesenchymal-like cells (Vimentin).

H1792 = test: 5-day Cell Titer Glo combination matrix, Bliss score; conditions: H1792 (Lung, Mesenchymal), 5 days
Description: as §2, §3, §4

H358 = test: as above; conditions: H358 (Lung, Epithelial), 5 days
Description: as §2, §3, §4

H2122 = test: as above; conditions: H2122 (Lung, Epithelial); FGFR inhibitor in combination with MRTX849; 5 days
Description: as §4

LU-99 = test: as above; conditions: 5 days
Description: as §3, §4

[1] = system: MiaPaca2 KRAS G12C resistant clone 28; test: 5-day Cell Titer Glo viability and Bliss score; conditions: 5-day CTG
Description: (§1) For G12C resistant clone generation, MiaPaca2 parent cells were cultured with increasing concentrations of AMG510 (up to 1μM) over time. The viable cells were re-fed fresh media containing AMG510 weekly. Once the AMG510 resistant cells were growing at normal rates in the presence of 1μM AMG510, they were cloned by limiting dilution. Eight clones were selected for continued passage and further experiments.

[2] = system: MiaPaca2 KRAS G12C resistant clone 7; test: 5-day Cell Titer Glo viability and Bliss score; conditions: 5-day CTG; for % viability, Pemi 1 μM: Pemi alone
Description: as §1

[3] = system: MiaPaca2 KRAS G12C resistant clone 23; test: 5-day Cell Titer Glo viability and Bliss score; conditions: 5-day CTG
Description: as §1

[4] = system: MiaPaca2 KRAS G12C resistant clone 11; test: 5-day Cell Titer Glo viability and Bliss score
Description: as §1

[5] = FGFR inhibitor in combination with Cmpd 3
[6] = FGFR inhibitor in combination with MRTX849
[7] = Average, G12C i 111 nM + Pemi 1 μM
[8] = CLONE 11, G12C i 111 nM + Pemi 1 μM, 5-day CTG

## CCN1C(=O)N(c2c(F)c(OC)cc(OC)c2F)Cc2cnc3[nH]c(CN4CCOCC4)cc3c21 [Pemigatinib, 3-(2,6-difluoro-3,5-dimethoxyphenyl)-1-ethyl-8-(morpholin-4-ylmethyl)-1,3,4,7-tetrahydro-2H-pyrrolo[3′,2′:5,6]pyrido[4,3-d]pyrimidin-2-one]
SW-1573; SW1573 (Lung, Mesenchymal), FGFR inhibitor in combination with MRTX849
  Avg. Bliss Score: 29.5
SW-1573; SW-1573 (Lung, Mesenchymal), FGFR inhibitor in combination with Cmpd 3
  Avg. Bliss Score: 19.3
HCC-44
  Avg. Bliss Score: 11.6
pFRS2a; 50 nM MRTX849, pemigatinib 0.5 μM
  pFRS2a level, FGFR inhibitor in combination with KRAS inhibitor MRTX849: inhibited the pFRS2a level
pFRS2a; with 50 nM AMG510 or Compound 2
  pFRS2a level, FGFR inhibitor in combination with KRAS inhibitors: inhibited the pFRS2a level
H1792; [5]
  Avg. Bliss Score: 24.2
H1792; [6]
  Avg. Bliss Score: 19.9
H358; [5]
  Avg. Bliss Score: 1.4
H358; [6]
  Avg. Bliss Score: 3.7
H2122
  Avg. Bliss Score: 4.5
LU-99; LU-99 (Lung, Mesenchymal), FGFR inhibitor in combination with Cmpd 3
  Avg. Bliss Score: 44.8
LU-99; Lu99 (Lung, Mesenchymal), FGFR inhibitor in combination with MRTX849
  Avg. Bliss Score: 37.4
[1]; G12C i 111 nM + Pemi 1 μM
  % viability, Together: 32.4%
  BLISS Score: 21.8
[1]; Pemi alone
  % viability, Pemi 1 μM: 78%
[2]; [7]
  % viability, Together: 54.6%
  BLISS Score: 15.0
[2]; Average
  % viability, Pemi 1 μM: 101.1%
[2]; G12C i 111 nM + Pemi 1 μM, single experiments
  % viability, Together: 63% and 53% and 47.7%
[2]; single experiments
  % viability, Pemi 1 μM: 104% and 106% and 93.4%
[3]; G12C i 111 nM + Pemi 1 μM
  % viability, Together: 74.9%
  BLISS Score: 16.1
[3]; Pemi alone
  % viability, Pemi 1 μM: 100.1%
[4]; [8]
  % viability, Together: 33.8%
  BLISS Score: 24.9
[4]; CLONE 11, Pemi alone, 5-day CTG
  % viability, Pemi 1 μM: 87.6%
[4]; MIA-R clone 11, Pemi 12 nM + KRAS G12C i 0.15 nM, 5 day CTG
  BLISS Score: 2.35
[4]; MIA-R clone 11, Pemi 12 nM + KRAS G12C i 0.46 nM, 5 day CTG
  BLISS Score: 11.42
[4]; MIA-R clone 11, Pemi 12 nM + KRAS G12C i 1.37 nM, 5 day CTG
  BLISS Score: 6.90
[4]; MIA-R clone 11, Pemi 12 nM + KRAS G12C i 4.12 nM, 5 day CTG
  BLISS Score: 11.81
[4]; MIA-R clone 11, Pemi 12 nM + KRAS G12C i 12.35 nM, 5 day CTG
  BLISS Score: 1.32
[4]; MIA-R clone 11, Pemi 12 nM + KRAS G12C i 37.04 nM, 5 day CTG
  BLISS Score: 5.62
[4]; MIA-R clone 11, Pemi 12 nM + KRAS G12C i 111.11 nM, 5 day CTG
  BLISS Score: 11.57
[4]; MIA-R clone 11, Pemi 12 nM + KRAS G12C i 333.33 nM, 5 day CTG
  BLISS Score: −7.24
[4]; MIA-R clone 11, Pemi 12 nM + KRAS G12C i 1000.00 nM, 5 day CTG
  BLISS Score: 1.05
[4]; MIA-R clone 11, Pemi 37 nM + KRAS G12C i 0.15 nM, 5 day CTG
  BLISS Score: 14.47
[4]; MIA-R clone 11, Pemi 37 nM + KRAS G12C i 0.46 nM, 5 day CTG
  BLISS Score: 6.20
[4]; MIA-R clone 11, Pemi 37 nM + KRAS G12C i 1.37 nM, 5 day CTG
  BLISS Score: 6.05
[4]; MIA-R clone 11, Pemi 37 nM + KRAS G12C i 4.12 nM, 5 day CTG
  BLISS Score: 20.01
[4]; MIA-R clone 11, Pemi 37 nM + KRAS G12C i 12.35 nM, 5 day CTG
  BLISS Score: 15.07
[4]; MIA-R clone 11, Pemi 37 nM + KRAS G12C i 37.04 nM, 5 day CTG
  BLISS Score: 10.60
[4]; MIA-R clone 11, Pemi 37 nM + KRAS G12C i 111.11 nM, 5 day CTG
  BLISS Score: 8.39
[4]; MIA-R clone 11, Pemi 37 nM + KRAS G12C i 333.33 nM, 5 day CTG
  BLISS Score: −5.78
[4]; MIA-R clone 11, Pemi 37 nM + KRAS G12C i 1000.00 nM, 5 day CTG
  BLISS Score: 4.52
[4]; MIA-R clone 11, Pemi 111 nM + KRAS G12C i 0.15 nM, 5 day CTG
  BLISS Score: −3.03
[4]; MIA-R clone 11, Pemi 111 nM + KRAS G12C i 0.46 nM, 5 day CTG
  BLISS Score: 6.04
[4]; MIA-R clone 11, Pemi 111 nM + KRAS G12C i 1.37 nM, 5 day CTG
  BLISS Score: 8.76
[4]; MIA-R clone 11, Pemi 111 nM + KRAS G12C i 4.12 nM, 5 day CTG
  BLISS Score: 13.15
[4]; MIA-R clone 11, Pemi 111 nM + KRAS G12C i 12.35 nM, 5 day CTG
  BLISS Score: 15.70
[4]; MIA-R clone 11, Pemi 111 nM + KRAS G12C i 37.04 nM, 5 day CTG
  BLISS Score: 13.58
[4]; MIA-R clone 11, Pemi 111 nM + KRAS G12C i 111.11 nM, 5 day CTG
  BLISS Score: 9.80
[4]; MIA-R clone 11, Pemi 111 nM + KRAS G12C i 333.33 nM, 5 day CTG
  BLISS Score: 6.86
[4]; MIA-R clone 11, Pemi 111 nM + KRAS G12C i 1000.00 nM, 5 day CTG
  BLISS Score: 3.15
[4]; MIA-R clone 11, Pemi 333 nM + KRAS G12C i 0.15 nM, 5 day CTG
  BLISS Score: 6.68
[4]; MIA-R clone 11, Pemi 333 nM + KRAS G12C i 0.46 nM, 5 day CTG
  BLISS Score: 20.56
[4]; MIA-R clone 11, Pemi 333 nM + KRAS G12C i 1.37 nM, 5 day CTG
  BLISS Score: 17.83
[4]; MIA-R clone 11, Pemi 333 nM + KRAS G12C i 4.12 nM, 5 day CTG
  BLISS Score: 34.95
[4]; MIA-R clone 11, Pemi 333 nM + KRAS G12C i 12.35 nM, 5 day CTG
  BLISS Score: 20.46
[4]; MIA-R clone 11, Pemi 333 nM + KRAS G12C i 37.04 nM, 5 day CTG
  BLISS Score: 24.19

Reference: US20230226040A1, “COMBINATION THERAPY COMPRISING AN FGFR INHIBITOR AND A KRAS INHIBITOR” (Incyte Corporation, priority 2021, published 2023)
